Reference: the supplement of paper PMC10307832

Legend:
Experiment in all cases: relative viability (nuclei count vs DMSO), 5 days (fraction); higher = more cells survive
NVP-TAE684 + Pemetrexed = compound: COc1cc(N2CCC(N3CCN(C)CC3)CC2)ccc1Nc1ncc(Cl)c(Nc2ccccc2S(=O)(=O)C(C)C)n1 [NVP-TAE684] + Nc1nc2[nH]cc(CCc3ccc(C(=O)N[C@@H](CCC(=O)O)C(=O)O)cc3)c2c(=O)[nH]1 [Pemetrexed] (partner 0.2 µM)
In short: (§1)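 Values are medians from duplicate plates. Each reflects relative viability, defined as the nuclei count of treated wells over that of vehicle wells. Lung cancer cell lines in 1536-well plates were pin-tool dosed one day after seeding with one drug alone or with a fixed anchor-drug dose plus five library-drug doses (not always all listed) in √10 steps, then fixed, stained and imaged at 4× after 5 days.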

Vandetanib + Vorinostat = compound: COc1cc2/c(=N/c3ccc(Br)cc3F)nc[nH]c2cc1OCC1CCN(C)CC1 [Vandetanib] + O=C(CCCCCCC(=O)Nc1ccccc1)NO [Vorinostat] (partner 1 µM)
In short: as §1

[1] = compound: C1=CC=C2C(=C1)N=C(S2)C(C#N)C3=NC(=NC=C3)NCCC4=CN=CC=C4
In short: (§2)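 Acceptance criteria were a control CV below 25% and at least one doubling per plate. Lung cancer cell lines in 1536-well plates got five library-drug doses (not always all listed) √10 apart by pinning and were left 5 days with no medium change. Viability divides treated-well nuclei by vehicle-well nuclei and is the median across plates. Nuclei were counted by MetaXpress from 4× Hoechst images.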

CUDC-101 = compound: C#Cc1cccc(Nc2ncnc3cc(OC)c(OCCCCCCC(=O)NO)cc23)c1 [CUDC-101]
In short: as §2

Cell Line	relative viability (NVP-TAE684 + Pemetrexed; first compound 0.2 µM)	relative viability (NVP-TAE684 + Pemetrexed; first compound 0.6325 µM)	relative viability (NVP-TAE684 + Pemetrexed; first compound 2 µM)	relative viability (Vandetanib + Vorinostat; first compound 0.02 µM)	relative viability (Vandetanib + Vorinostat; first compound 0.06325 µM)	relative viability (Vandetanib + Vorinostat; first compound 0.2 µM)	relative viability (Vandetanib + Vorinostat; first compound 0.6325 µM)	relative viability (Vandetanib + Vorinostat; first compound 2 µM)	relative viability ([1]; 0.005 µM)	relative viability ([1]; 0.01581 µM)	relative viability ([1]; 0.05 µM)	relative viability ([1]; 0.1581 µM)	relative viability ([1]; 0.5 µM)	relative viability (CUDC-101; 0.01 µM)	relative viability (CUDC-101; 0.03162 µM)	relative viability (CUDC-101; 0.1 µM)	relative viability (CUDC-101; 0.3162 µM)	relative viability (CUDC-101; 1 µM)
NCI-H2009	1.06	1.01	0.894	0.724	0.638	0.727	0.783	0.756	0.938	1	1.04	1.04	1.02	1	0.999	1.04	1.04	0.914
NCI-H2023	0.258	0.186	0.123	0.563	0.516		0.561	0.489	0.887	1.02	0.889	1.16	0.935	1.02	0.884	0.962	1.15	0.87
NCI-H2085	1.01	0.874	0.813	0.836	0.74	0.66	0.773	0.777	0.928	0.983	0.977	1.01	0.998	1.01	1.03	1.02	0.981	0.893
NCI-H2087	0.679	0.707	0.57	0.755	0.604	0.657	0.614	0.922	0.993	1.03	1.03	1.13	0.981	1.24	1.06	0.95	1.1	0.884
NCI-H2126	0.734	0.67	0.554	0.801	0.736	0.703	0.702	0.699	0.912	0.977	0.946	1.05	0.864	1.04	0.957	1.03	0.94	0.81
NCI-H2170	0.274	0.27	0.228	0.84	0.829	0.816	0.767	0.813	0.894	0.991	0.949	1	0.913	0.974	0.987	1.06	1.01	0.9
NCI-H2228	0.29	0.332	0.121	0.592	0.474	0.747	1.04	0.679	0.839	1.12	0.962	1.17	0.956	1.02	1.23	0.946	1.09	1.07
NCI-H2342	0.93	0.771	0.493	0.754	0.674	0.785	0.739	0.645	0.82	0.978	0.874	1	0.938	1.06	0.931	0.973	0.996	0.923
NCI-H2347	0.431	0.38	0.406	0.643	0.387	0.575	0.678	0.574	1.11	1.09	0.995	1.05	1.02	1.1	1.04	1.07	1.11	0.972
